Data reported in patent US11465987B2, “Compounds for treatment of cancer” (ONCTERNAL THERAPEUTICS, INC., priority 2012, dated 2022).
Counter-ions that a name gives are not always drawn. Like-named read-outs stand apart in the source and are kept apart here. Blank lines part the entries; values can stand above or below the molecule they belong to.

Legend:
[1] = tested on: melanoma and prostate cancer cell lines; assay: Antiproliferative activity summarised over the cell line panel (range or average); assay type: cell-based; conditions: for antiproliferative activity in words: Tables 1-3
[2] = tested on: PC-3 human prostate cancer cell line; assay: cells
Description: (§1) Cells were stained with SRB solution.

[3] = tested on: LNCaP human prostate cancer cell line; assay: Cytotoxicity (SRB) assay, LNCaP; assay type: cell-based
Description: as §1

[4] = tested on: DU 145 human prostate cancer cell line; assay: Cytotoxicity (SRB) assay, DU 145; assay type: cell-based
Description: as §1

[5] = tested on: PPC-1 human prostate cancer cell line; assay: Cytotoxicity (SRB) assay, PPC-1; assay type: cell-based
Description: as §1

[6] = Homo sapiens, read-out: IC50 PC-3, SRB assay, prostate cancer PC-3
[7] = Tables 1-2, read-out: IC50 (range or bound over tested cell lines)
[8] = range over prostate cancer cell lines, read-out: IC50 range against prostate cancer cells
[9] = Homo sapiens, LNCaP, SRB assay, prostate cancer LNCaP, read-out: IC50 LNCaP
[10] = Homo sapiens, PPC-1, SRB assay, prostate cancer PPC-1, read-out: IC50 PPC-1
[11] = Homo sapiens, read-out: IC50 ± SEM, PC-3, Table 13
[12] = Tables 11-13, read-out: IC50 (average of all seven cell lines)
[13] = Homo sapiens, LNCaP, Table 13A, read-out: inhibitory effects, LNCaP
[14] = Homo sapiens, PPC-1, Table 13A, read-out: inhibitory effects, PPC1
[15] = Homo sapiens, DU-145, Table 13A, read-out: inhibitory effects, DU145
[16] = Table 13A, read-out: inhibitory effects, LNCaP
[17] = Table 13A, read-out: inhibitory effects, PPC1
[18] = read-out: inhibitory effects, PC3, Table 13A
[19] = Table 13A, read-out: inhibitory effects, DU145

SMILES: COc1cc(C(=O)c2cccc(-c3ccccc3)c2)cc(OC)c1OC [1a, Biphenyl-3-yl(3,4,5-trimethoxyphenyl)methanone]
antiproliferative activity in words [1]: hundreds of nanomolar range

IC50 [2, 6]: 8300 nM
IC50 [1, 7]: 3700 to 8300 nM
SMILES: COc1cc(C(=O)c2cc(-c3ccccc3)ncn2)cc(OC)c1OC [1b, (6-Phenylpyrimidin-4-yl)(3,4,5-trimethoxyphenyl)methanone]

IC50 [2, 6]: 21 nM
IC50 [1, 8]: 12 to 35 nM
SMILES: COc1cc(C(=O)c2ccc(-c3ccccc3)o2)cc(OC)c1OC [1d, (5-Phenylfuran-2-yl)(3,4,5-trimethoxyphenyl)methanone]

IC50 [1, 7]: > 10000 nM
SMILES: COc1cc(C(=O)c2cnc(-c3ccccc3)s2)cc(OC)c1OC [1e, (2-Phenylthiazol-5-yl)(3,4,5-trimethoxyphenyl)methanone]

IC50 [2, 6]: 12 nM
IC50 [1, 8]: 12 to 35 nM
SMILES: COc1cc(C(=O)c2csc(-c3ccccc3)c2)cc(OC)c1OC [1f, (5-Phenylthiophen-3-yl)(3,4,5-trimethoxyphenyl)methanone]

IC50 [1, 7]: > 20000 nM
SMILES: COc1cc(C(=O)N2CCC(c3ccccc3)CC2)cc(OC)c1OC [1g, (4-Phenylpiperidin-1-yl)(3,4,5-trimethoxyphenyl)methanone]

IC50 [1, 7]: > 10000 nM
SMILES: COc1cc(C(=O)c2cc(-c3ccccc3)on2)cc(OC)c1OC [1i, (5-Phenylisoxazol-3-yl)(3,4,5-trimethoxyphenyl)methanone]

IC50 [2, 6]: > 10000 nM
SMILES: COc1cc(C(O)c2csc(-c3ccccc3)n2)cc(OC)c1OC (stereo not drawn) [2b, (2-Phenylthiazol-4-yl)(3,4,5-trimethoxyphenyl)methanol]
antiproliferative activity in words [1]: inactive

SMILES: COc1cc(/C(=N/O)c2csc(-c3ccccc3)n2)cc(OC)c1OC [2e-cis, (Z)-(2-Phenylthiazol-4-yl)(3,4,5-trimethoxyphenyl)methanone oxime]
IC50 [2, 6]: 120 nM
fold more activity than anti-isomer ([1]; 2e-cis vs 2e-trans): 10 fold
IC50 [1, 7]: 100 to 300 nM

IC50 [2, 6]: > 10000 nM
IC50 [1, 7]: > 10000 nM
SMILES: COc1cc(/C(=N\O)c2csc(-c3ccccc3)n2)cc(OC)c1OC [2e-trans, (E)-(2-Phenylthiazol-4-yl)(3,4,5-trimethoxyphenyl)methanone oxime]

IC50 [2, 6]: > 10000 nM
SMILES: COc1cc(NC(=O)c2csc(-c3ccccc3)n2)cc(OC)c1OC [2g, 2-Phenyl-N-(3,4,5-trimethoxyphenyl)thiazole-4-carboxamide]
IC50 [3, 9]: > 10000 nM

SMILES: CNCc1ccc(-c2nc(C(=O)c3cc(OC)c(OC)c(OC)c3)cs2)cc1.Cl [2s, (2-(4-((Methylamino)methyl)phenyl)thiazol-4-yl)(3,4,5-trimethoxyphenyl)methanone hydrochloride]
IC50 ([2]; Homo sapiens, read-out: IC50 PC-3): > 10000 nM
antiproliferative activity in words [1]: abrogated activity
IC50 ([4]; Homo sapiens, SRB assay, prostate cancer DU 145, read-out: IC50 DU 145): > 10000 nM

IC50 [2, 6]: > 10000 nM
SMILES: COc1cc(C(=O)c2csc(-c3ccc(CN(C)C)cc3)n2)cc(OC)c1OC.Cl [2u, (2-(4-((Dimethylamino)methyl)phenyl)thiazol-4-yl)(3,4,5-trimethoxyphenyl)methanone hydrochloride]
antiproliferative activity in words [1]: abrogated activity

SMILES: COc1cc(C(=O)c2csc(Nc3ccc(C)cc3)n2)cc(OC)c1OC [5Hb, (2-(p-tolylamino)thiazol-4-yl)(3,4,5-trimethoxyphenyl)methanone hydrochloride salt]
IC50 [3, 9]: 35 ± 1 nM
IC50 [5, 10]: 36 ± 1 nM
IC50 [2, 6]: 38 ± 2 nM
IC50 ([4]; Homo sapiens, DU-145, SRB assay, prostate cancer DU 145, read-out: IC50 DU 145): 35 ± 1 nM

IC50 [2, 11]: > 10000 nM
IC50 [1, 12]: 1000 to 50000 nM
SMILES: COc1cc(C(=O)c2cn(S(=O)(=O)c3ccccc3)c(-c3cc(OC)c(OC)c(OC)c3)n2)cc(OC)c1OC [11ea, (1-(phenylsulfonyl)-2-(3,4,5-trimethoxyphenyl)-1H-imidazol-4-yl)(3,4,5-trimethoxyphenyl)methanone]

IC50 [2, 11]: > 10000 nM
IC50 [1, 12]: 1000 to 50000 nM
SMILES: COc1cc(-c2nc(C(=O)c3ccc(F)cc3)cn2S(=O)(=O)c2ccccc2)cc(OC)c1OC [11eb, (4-fluorophenyl)(1-(phenylsulfonyl)-2-(3,4,5-trimethoxyphenyl)-1H-imidazol-4-yl)methanone]

IC50 [2, 11]: 10000 nM
IC50 [1, 12]: 1000 to 50000 nM
SMILES: COc1ccc(-c2nc(C(=O)c3ccc(F)cc3)cn2S(=O)(=O)c2ccccc2)cc1OC [11hb, (2-(3,4-dimethoxyphenyl)-1-(phenylsulfonyl)-1H-imidazol-4-yl)(4-fluorophenyl)methanone]

IC50 [2, 11]: > 10000 nM
IC50 [1, 12]: 1000 to 50000 nM
SMILES: COc1cc(C(=O)c2cn(S(=O)(=O)c3ccccc3)c(-c3ccccc3C(F)(F)F)n2)cc(OC)c1OC [11ia, (1-(phenylsulfonyl)-2-(2-(trifluoromethyl)phenyl)-1H-imidazol-4-yl)(3,4,5-trimethoxyphenyl)methanone]

IC50 [2, 11]: > 10000 nM
IC50 [1, 12]: 1000 to 50000 nM
SMILES: O=C(c1ccc(F)cc1)c1cn(S(=O)(=O)c2ccccc2)c(-c2ccccc2C(F)(F)F)n1 [11ib, (1-(phenylsulfonyl)-2-(2-(trifluoromethyl)phenyl)-1H-imidazol-4-yl)(4-fluorophenyl)methanone]

IC50 [1, 12]: 1000 to 50000 nM
SMILES: COc1cc(-c2nc(C(=O)c3ccc(F)cc3)c[nH]2)cc(OC)c1OC [12eb]

SMILES: COc1cc(C(=O)[C@H]2COC(c3ccccc3)=N2)cc(OC)c1OC [35a, (2R)-(2-Phenyl-4,5-dihydro-oxazol-4-yl)-(3,4,5-trimethoxy-phenyl)-methanone]
antiproliferative activity in words [1]: hundreds of nanomolar range

SMILES: COc1cc(C(=O)c2coc(-c3ccccc3)n2)cc(OC)c1OC [36a, (2-Phenyl-oxazol-4-yl)-(3,4,5-trimethoxy-phenyl)-methanone]
antiproliferative activity in words [1]: hundreds of nanomolar range

IC50 [2, 6]: 7 nM
IC50 ([1]; read-out: IC50 (range over tested cell lines)): 7 to 25 nM
SMILES: COc1cc(C(=O)c2csc(-c3ccc4[nH]ccc4c3)n2)cc(OC)c1OC [66a]

SMILES: CCCn1cc(-c2ccccc2)nc1C(=O)c1cc(OC)c(OC)c(OC)c1 [70ab]
IC50 ([3]; Homo sapiens, LNCaP, read-out: inhibitory effects, LNCaP): 49.4 nM
IC50 ([5]; Homo sapiens, PPC-1, read-out: inhibitory effects, PPC1): 9.8 nM
IC50 ([2]; Homo sapiens, read-out: inhibitory effects, PC3): 25.6 nM
IC50 ([4]; Homo sapiens, DU-145, read-out: inhibitory effects, DU145): 71.6 nM

IC50 ([2]; Homo sapiens, read-out: inhibitory effects, PC3, Table 13A): 52.5 nM
SMILES: COc1cc(C(=O)c2nc(-c3ccccc3)cn2C(C)C)cc(OC)c1OC [70ac]
IC50 [3, 13]: 62.2 nM
IC50 [5, 14]: 15 nM
IC50 [4, 15]: 114 nM

SMILES: COc1cc(C(=O)c2nc(-c3ccccc3)cn2-c2ccccn2)cc(OC)c1OC [70ad]
IC50 [3, 13]: 19.5 nM
IC50 [5, 14]: 7.8 nM
IC50 [4, 15]: 36.3 nM

IC50 [2, 18]: 196 nM
SMILES: COc1cc(C(=O)c2nc(-c3ccc(F)cc3)c[nH]2)cc(OC)c1OC [70b, (4-(4-Fluorophenyl)-1H-imidazol-2-yl)(3,4,5-trimethoxyphenyl)methanone and (5-(4-fluorophenyl)-H-imidazol-2-yl)(3,4,5-trimethoxyphenyl)methanone]
IC50 [3, 16]: 114 nM
IC50 [5, 17]: 13 nM
IC50 [4, 19]: 353 nM

SMILES: COc1cc(C(=O)c2nc(-c3ccc(C)cc3)c[nH]2)cc(OC)c1OC [70f, (4-p-Tolyl-1H-imidazol-2-yl)(3,4,5-trimethoxyphenyl)methanone and (5-p-tolyl-H-imidazol-2-yl)(3,4,5-trimethoxyphenyl)methanone]
IC50 [3, 16]: 13 nM

SMILES: COc1cc(C(=O)c2nc(-c3ccc(O)cc3)c[nH]2)cc(OC)c1OC [70i, (4-(4-Hydroxyphenyl)-1H-imidazol-2-yl)(3,4,5-trimethoxyphenyl)methanone and (5-(4-hydroxyphenyl)-1H-imidazol-2-yl)(3,4,5-trimethoxyphenyl)methanone)]
IC50 [3, 16]: 219 nM
IC50 [5, 17]: 122 nM
IC50 [2, 18]: 155 nM
IC50 [4, 19]: 518 nM

IC50 [2, 6]: 3490 nM
SMILES: COc1cc(C(=O)C2N(C)C=C(c3ccccc3)N2C)cc(OC)c1OC (stereo not drawn) [compound 105, (1,3-Dimethyl-4-phenyl-2,3-dihydro-1H-imidazol-2-yl)(3,4,5-trimethoxyphenyl)methanone]
IC50 [3, 9]: 4240 nM
IC50 [5, 10]: 5290 nM
